The record followed here is patent publication US12428415B2, “Matriptase 2 inhibitors and uses thereof” (Disc Medicine, Inc., priority 2018, dated 2025).

As a reminder, the inhibition is how much of the control response was suppressed.

For the first experiment, the target named is T1, Human Recombinant Matriptase 2 (Homo sapiens, UniProt Q8IU80).
T1 construct: purchased Enzo Life Sciences (an in-house preparation was also used) ALX-201-752-1
T1 sequence (Q8IU80 1-811): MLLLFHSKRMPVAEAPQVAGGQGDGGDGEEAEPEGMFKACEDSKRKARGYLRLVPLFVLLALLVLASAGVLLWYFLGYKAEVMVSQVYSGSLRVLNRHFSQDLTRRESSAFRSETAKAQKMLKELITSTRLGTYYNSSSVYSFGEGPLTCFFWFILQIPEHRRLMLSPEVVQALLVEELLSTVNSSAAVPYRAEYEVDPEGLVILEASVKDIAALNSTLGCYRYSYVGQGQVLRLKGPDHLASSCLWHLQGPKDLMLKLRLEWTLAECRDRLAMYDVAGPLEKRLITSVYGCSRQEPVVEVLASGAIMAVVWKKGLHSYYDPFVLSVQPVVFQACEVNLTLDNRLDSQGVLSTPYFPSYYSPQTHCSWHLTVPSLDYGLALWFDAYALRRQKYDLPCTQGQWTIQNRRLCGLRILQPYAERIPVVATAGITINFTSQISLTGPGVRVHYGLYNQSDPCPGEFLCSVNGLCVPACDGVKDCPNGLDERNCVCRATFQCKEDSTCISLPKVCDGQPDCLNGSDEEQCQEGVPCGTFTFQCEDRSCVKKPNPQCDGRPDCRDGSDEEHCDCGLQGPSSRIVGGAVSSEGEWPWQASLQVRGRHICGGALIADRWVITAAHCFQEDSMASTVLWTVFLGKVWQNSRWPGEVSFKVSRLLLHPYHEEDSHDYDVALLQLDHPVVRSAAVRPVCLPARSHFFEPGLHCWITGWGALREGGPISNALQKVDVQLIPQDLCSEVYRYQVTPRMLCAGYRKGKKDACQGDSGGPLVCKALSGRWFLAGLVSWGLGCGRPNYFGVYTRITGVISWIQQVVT
The experiment can be described thus: Matriptase 2 fluorescence based inhibition assay, Method A (100 mM TRIS pH 9, 1 mg/mL BSA). The format is biochemical. Conditions: 1 uM; Assay Used A; read-out: Mar-2 % inhibition at 1 uM. The method, boiled down:
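Enzyme (7 nM commercial or 15 nM in-house) preincubated 30 min with compound in 100 mM TRIS pH 9, 1 mg/mL BSA, 1% DMSO at 25° C. Boc-Gln-Ala-Arg-AMC substrate at 100 μM; fluorescence (Ex 360/Em 480 nm) read 60 min later. Screened at 1 and 10 μM; IC50 from variable-slope sigmoidal fit.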
For `N=C(N)c1ccc2cc(C(=O)Nc3cc(F)ccn3)n(Cc3ccc(C(N)=O)cc3)c2c1` [Compound I-169], the inhibition at 1 µM was in the range of 0 to 25%.

Regarding `N=C(N)c1ccc2cc(C(=O)N[C@@H]3CC=CCC3)n(CCS(=O)(=O)c3ccccc3)c2c1` [Compound I-47], the inhibition at 1 µM is 0 to 25%.

Regarding `N=C(N)c1ccc2cc(C(=O)NCc3cccc(CN)c3)n(CCc3ccccc3)c2c1` [Compound I-24], the inhibition at 1 µM lay in the range of 0 to 25%.

`N=C(N)c1ccc2cc(C(=O)Nc3cc(F)c(F)c(F)c3)n(Cc3ccc(C(N)=O)cc3)c2c1` [Compound I-89]: the inhibition at 1 µM lay in the range of 0 to 25%.

Regarding `N=C(N)c1ccc2cc(C(=O)Nc3cncc(F)c3)n(Cc3ccc(C(N)=O)cc3)c2c1` [Compound I-172], the inhibition at 1 µM is 0 to 25%.

For `N=C(N)c1ccc2cc(C(=O)Nc3ccc(F)cc3)n(CCS(=O)(=O)c3ccccc3)c2c1` [Compound I-42], the inhibition at 1 µM lay in the range of 0 to 25%.

Regarding `CC(C)c1cccc(NC(=O)c2cc3ccc(C(=N)N)cc3n2Cc2ccc(C(N)=O)cc2)c1` [Compound I-79], the inhibition at 1 µM was in the range of 0 to 25%.

Take `N=C(N)c1ccc2cc(C(=O)Nc3ccc(Cl)nc3)n(Cc3ccc(C(N)=O)cc3)c2c1` [Compound I-174]: the inhibition at 1 µM is 0 to 25%.

As for `C#Cc1cccc(NC(=O)c2cc3ccc(C(=N)N)cc3n2Cc2ccc(C(N)=O)cc2)c1` [Compound I-138], the inhibition at 1 µM lay within 0 to 25%.

With `CN(C)C(=O)COc1ccc(NC(=O)c2cc3ccc(C(=N)N)cc3n2Cc2ccc(C(N)=O)cc2)cc1` [Compound I-99], the inhibition at 1 µM was 25 to 50%.

With `N=C(N)c1ccc2cc(C(=O)N[C@H]3CC[C@H](N)CC3)n(Cc3ccncc3)c2c1` [Compound I-19], the inhibition at 1 µM is 25 to 50%.

The experiment is the same for the next values; noted with them: at 1 uM; Assay Used = A; read-out: Mar-2 % inhibition at 1 uM.
On to `N=C(N)c1ccc2cc(C(=O)N3CCc4ccccc4C3)n(Cc3ccc(NC(=O)CCN)cc3)c2c1` [Compound I-378], for which the inhibition at 1 µM was 0 to 25%.

As for `N=C(N)c1ccc2cc(C(=O)NC3CCC(F)(F)CC3)n(Cc3ccc(-c4ccccc4)cc3)c2c1` [Compound I-235], the inhibition at 1 µM lay in the range of 0 to 25%.

Consider `N=C(N)c1ccc2cc(C(=O)N3CCC(F)CC3)n(Cc3ccc(C(=O)NC4CC4)cc3)c2c1` [Compound I-391], for which the inhibition at 1 µM lay in the range of 0 to 25%.

For the compound `N=C(N)c1ccc2cc(C(=O)N3CCC(F)(F)CC3)n(Cc3cccc(NC(=O)CCN)c3)c2c1` [Compound I-367], the inhibition at 1 µM is 0 to 25%.

Consider `N=C(N)c1ccc2cc(C(=O)N3CC[C@H](F)C3)n(Cc3ccc(C(F)(F)F)cc3)c2c1` [Compound I-279], for which the inhibition at 1 µM lay in the range of 0 to 25%.

With `N=C(N)c1ccc2cc(C(=O)N3CC[C@@H](N4CCOCC4)C3)n(Cc3ccc(C(N)=O)cc3)c2c1` [Compound I-333], the inhibition at 1 µM is 0 to 25%.

As to `CCNC(=O)c1ccc(Cn2c(C(=O)NC3CCC(C)CC3)cc3ccc(C(=N)N)cc32)cc1` (centres unmarked) [Compound I-221, 6-Carbamimidoyl-1-(4-(ethylcarbamoyl)benzyl)-N-(4-methylcyclohexyl)-1H-indole-2-carboxamide], the inhibition at 1 µM is 0 to 25%.

On to `N=C(N)c1ccc2cc(C(=O)N3CCC(CCN)CC3)n(Cc3ccc(NC(=O)CCCN)cc3)c2c1` [Compound I-372], for which the inhibition at 1 µM fell in the range of 25 to 50%.

Regarding `N=C(N)c1ccc2cc(C(=O)N3CCC(F)C3)n(Cc3cccc(C(N)=O)c3)c2c1` (centres unmarked) [Compound I-323, 3-((6-Carbamimidoyl-2-(3-fluoropyrrolidine-1-carbonyl)-1H-indol-1-yl)methyl)benzamide], the inhibition at 1 µM fell in the range of 0 to 25%.
